Reference: US11197906B2, “Methods of lowering blink reflex for the treatment of dry eye disease” (Tufts Medical Center, priority 2016, dated 2021)
Values belong to the compound of their own block, whether it stands above or below them. Non-standard residues stand in square brackets, D forms with d. Residues, ends and D or L forms follow the SMILES beside them. Primed or numbered codes have the meaning given here. *: point of attachment. Palmitoyl = CCCCCCCCCCCCCCCC(=O)*; Tic = O=C(O)[C@@H]1Cc2ccccc2CN1; PEG8′ = not defined here

Legend:
CMKLR1 [1] = target: T1, CMKLR1 (Homo sapiens, UniProt Q99788); assay: β-Arrestin recruitment, Link-Light CMKLR1 stable cell line; assay type: cell-based; conditions: 1 hr treatment; for Emax: read-out: Max Efficacy (% 10 μM s-Stable chem9)
T1 construct: expressed in transfected cells; host or cells: HEK293
T1 sequence (Q99788 1-373): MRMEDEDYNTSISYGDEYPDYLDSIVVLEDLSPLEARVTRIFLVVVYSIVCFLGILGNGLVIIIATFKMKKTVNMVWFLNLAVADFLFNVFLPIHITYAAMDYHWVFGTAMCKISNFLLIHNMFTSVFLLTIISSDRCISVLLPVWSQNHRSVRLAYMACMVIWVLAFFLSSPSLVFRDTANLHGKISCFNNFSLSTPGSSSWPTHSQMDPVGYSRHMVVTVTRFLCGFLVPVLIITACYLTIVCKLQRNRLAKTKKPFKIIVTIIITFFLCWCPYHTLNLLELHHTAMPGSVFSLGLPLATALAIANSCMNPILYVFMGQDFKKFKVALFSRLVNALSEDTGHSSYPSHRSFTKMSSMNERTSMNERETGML

[2] = system: chronic constriction injury (CCI) mouse model; assay: Chronic constriction injury (CCI) mouse model of neuropathic pain; assay type: in vivo; conditions: for effect on neuropathic pain: CCI mouse model; for time after compound administration over which mechanical hypersensitivity is blocked / efficacy kept: intrathecal administration
Experimental: Following intrathecal administration of compound, 1-Stable Chem (C16-stable Chem9) blocked mechanical hypersensitivity for more than 24 hours after compound administration (FIG. 6A). In contrast, Resolvin E1 lost efficacy by 3 hours post injection (FIG. 6B).
One emerging treatment strategy to treat neuropathic pain is to target modulators of the neuroinflammatory process which contributes to neuropathic pain. We have previously identified a palmitoylated stable analog (“C16-Stable Chem9”) derived from a 9 amino acid fragment of chemerin. […] Extending from these observations, we hypothesized that the pharmacological properties of our peptide may be further optimized by modifying the lipid anchor. We have chemically synthesized a series of Chem 9 analogs with various lipid tails (e.g. cholesterol, oleic acid, linolenic acid). In vitro pharmacological characterization of each peptide was done using HEK293 cells transiently expressing the recombinant CMKLR1. […] Furthermore, selected lipid tails bias binding to either albumin (thus enhancing systemic delivery) or to the cellular membrane (which favors locally restricted function). The lipidated CMKLR1 ligands have promise as modulators of neuropathic pain. In addition, our findings illustrate an approach where serial addition/substitution of lipid anchors can be applied to optimize the pharmacological as well as pharmacokinetic properties of many peptide ligands.

[3] = system: mouse model of corneal inflammation; assay: Thermal cautery mouse model of corneal inflammation; assay type: in vivo
Experimental: FIG. 15 is a set of flow cytometry graphs showing that cell infiltration decreases after topical application of oTTx-010 compared to vehicle. Flow cytometry of pulled corneas was performed on day 3 post cautery. Mice were treated topically three times a day with 10 μL of oTTx-010 or vehicle for 3 days. 10 μL of […] oTTx-010 in 1×PBS solution=4.2 micrograms oTTx-010/dose.
Thermal cautery is a mouse model of corneal inflammation (see Arch Ophthalmol. 2003 Hamrah et al.).

DED mice = assay: Dry eye disease (DED) mouse model (scopolamine and desiccating stress); assay type: in vivo
Description: FIG. 11 is a graph showing that corneal fluorescein staining scores were lower in DED mice treated with oTTx-010. NEI scoring system: 0-15.
FIG. 13 is a set of flow cytometry graphs showing that percentage of activated immune cells (MHCII+) in the draining lymph node of oTTx-010 treated mice decreased compared to vehicle controls.
FIG. 14 is a set of flow cytometry graphs showing that T regulatory cells increased in the draining lymph node of oTTx-010 treated mice compared to vehicle (showing more tolerance). Flow cytometry of draining lymph nodes gated on CD45+ CD3+ and CD4+ (T cells).
In the DED mouse model, scopolamine is injected 3 times/day to decrease tear production in mice. Fenestrated cages and 4 fans around the cage working 24 hours/day are used to induce desiccating stress and dry eyes. oTTx-010 is administered to the mice to assess treatment efficacy. Vehicle is administered as control.

CMKLR1 [4] = target: T1, CMKLR1; assay: Luciferase reporter assay of CMKLR1 canonical Gαi signal transduction in HEK293 cells transiently expressing recombinant CMKLR1 (+/- wash, +/- albumin); assay type: cell-based; conditions: for EC50: no wash

Emax (CMKLR1 [1]): 154%
Compound: CCCCCC/C=C\CCCCCCCC(=O)NCCOCCOCCOCCOCCOCCOCCOCCOCCC(=O)N[C@@H](CCCCN)C(=O)NCC(=O)NCC(=O)N[C@H](Cc1ccc(O)cc1)C(=O)N[C@@H](Cc1ccccc1)C(=O)N[C@@H](CC(C)C)C(=O)N1CCC[C@H]1C(=O)N[C@H](CO)C(=O)N[C@@H](CCC(N)=O)C(=O)N[C@@H](Cc1ccccc1)C(=O)N[C@H](C)C(=O)N1Cc2ccccc2C[C@H]1C(=O)N[C@@H](CO)C(=O)O [C16:1] (HELM PEPTIDE1{[CCCCCC/C=C\CCCCCCCC(=O)[*:2]].[O=C(CCOCCOCCOCCOCCOCCOCCOCCOCCN[*:1])[*:2]].K.G.G.[dY].F.L.P.[dS].Q.F.[dA].[Tic].S}$$$$V2.0; N-terminus and C-terminus assumed)

Compound: CC[C@@H](O)/C=C/C=C\C[C@@H](O)/C=C/C=C/C=C\[C@@H](O)CCCC(=O)O [Resolvin E1, reference compound]
effect on neuropathic pain [2]: abrogate neuropathic pain
time after compound administration over which mechanical hypersensitivity is blocked / efficacy kept [2]: ≤ 3 h

Emax (CMKLR1 [1]): 124%
Compound: CCCC/C=C\CCCCCCCC(=O)NCCOCCOCCOCCOCCOCCOCCOCCOCCC(=O)N[C@@H](CCCCN)C(=O)NCC(=O)NCC(=O)N[C@H](Cc1ccc(O)cc1)C(=O)N[C@@H](Cc1ccccc1)C(=O)N[C@@H](CC(C)C)C(=O)N1CCC[C@H]1C(=O)N[C@H](CO)C(=O)N[C@@H](CCC(N)=O)C(=O)N[C@@H](Cc1ccccc1)C(=O)N[C@H](C)C(=O)N1Cc2ccccc2C[C@H]1C(=O)N[C@@H](CO)C(=O)O [C14:1] (HELM PEPTIDE1{[CCCC/C=C\CCCCCCCC(=O)[*:2]].[O=C(CCOCCOCCOCCOCCOCCOCCOCCOCCN[*:1])[*:2]].K.G.G.[dY].F.L.P.[dS].Q.F.[dA].[Tic].S}$$$$V2.0; N-terminus and C-terminus assumed)

Emax (CMKLR1 [1]): 89.7%
Compound: CCCC(=O)NCCOCCOCCOCCOCCOCCOCCOCCOCCC(=O)N[C@@H](CCCCN)C(=O)NCC(=O)NCC(=O)N[C@H](Cc1ccc(O)cc1)C(=O)N[C@@H](Cc1ccccc1)C(=O)N[C@@H](CC(C)C)C(=O)N1CCC[C@H]1C(=O)N[C@H](CO)C(=O)N[C@@H](CCC(N)=O)C(=O)N[C@@H](Cc1ccccc1)C(=O)N[C@H](C)C(=O)N1Cc2ccccc2C[C@H]1C(=O)N[C@@H](CO)C(=O)O [C4] (HELM PEPTIDE1{[CCCC(=O)[*:2]].[O=C(CCOCCOCCOCCOCCOCCOCCOCCOCCN[*:1])[*:2]].K.G.G.[dY].F.L.P.[dS].Q.F.[dA].[Tic].S}$$$$V2.0; N-terminus and C-terminus assumed)

Compound: palmitate-PEG8KGG-H2N-Y*-F-L-P-S*-Q-F-A*-Tic-S-COOH ({Palmitoyl-PEG8′}-KGG[dY]FLP[dS]QF[dA][Tic]S-OH) [oTTx-010]
cell infiltration (flow cytometry of corneas) ([3]; day 3 post cautery, topical three times a day 10 μL for 3 days, compared to vehicle): decreases
inflammation in the eye ([3]; topical): decrease inflammation in the eye
corneal fluorescein staining scores (DED mice; NEI scoring system: 0-15, compared with vehicle): lower
blink reflex as a sign of ocular irritation (DED mice; compared to vehicle treated group): significantly lower
T regulatory cells in the draining lymph node (DED mice; flow cytometry gated on CD45+ CD3+ and CD4+, compared to vehicle): increased
percentage of activated immune cells (MHCII+) in the draining lymph node (DED mice; flow cytometry, compared to vehicle controls): decreased
clinical symptoms and signs and immune tolerance in DED (DED mice; topical): decrease clinical symptoms and signs and improve immune tolerance

Emax (CMKLR1 [1]): 98.3%
Compound: CCCCCCCCCC(=O)NCCOCCOCCOCCOCCOCCOCCOCCOCCC(=O)N[C@@H](CCCCN)C(=O)NCC(=O)NCC(=O)N[C@H](Cc1ccc(O)cc1)C(=O)N[C@@H](Cc1ccccc1)C(=O)N[C@@H](CC(C)C)C(=O)N1CCC[C@H]1C(=O)N[C@H](CO)C(=O)N[C@@H](CCC(N)=O)C(=O)N[C@@H](Cc1ccccc1)C(=O)N[C@H](C)C(=O)N1Cc2ccccc2C[C@H]1C(=O)N[C@@H](CO)C(=O)O [C10] (HELM PEPTIDE1{[CCCCCCCCCC(=O)[*:2]].[O=C(CCOCCOCCOCCOCCOCCOCCOCCOCCN[*:1])[*:2]].K.G.G.[dY].F.L.P.[dS].Q.F.[dA].[Tic].S}$$$$V2.0; N-terminus and C-terminus assumed)

Emax (CMKLR1 [1]): 160%
Compound: CCCCCCCC/C=C\CCCCCCCC(=O)NCCOCCOCCOCCOCCOCCOCCOCCOCCC(=O)N[C@@H](CCCCN)C(=O)NCC(=O)NCC(=O)N[C@H](Cc1ccc(O)cc1)C(=O)N[C@@H](Cc1ccccc1)C(=O)N[C@@H](CC(C)C)C(=O)N1CCC[C@H]1C(=O)N[C@H](CO)C(=O)N[C@@H](CCC(N)=O)C(=O)N[C@@H](Cc1ccccc1)C(=O)N[C@H](C)C(=O)N1Cc2ccccc2C[C@H]1C(=O)N[C@@H](CO)C(=O)O [C18:1] (HELM PEPTIDE1{[CCCCCCCC/C=C\CCCCCCCC(=O)[*:2]].[O=C(CCOCCOCCOCCOCCOCCOCCOCCOCCN[*:1])[*:2]].K.G.G.[dY].F.L.P.[dS].Q.F.[dA].[Tic].S}$$$$V2.0; N-terminus and C-terminus assumed)

Emax (CMKLR1 [1]): 165%
potency and duration of activity (anchors to the cell membrane) (CMKLR1 [4]; previously identified analog): high potency and long-term activity
wash resistance (an index of membrane adherence) in the presence of BSA (CMKLR1 [4]; with BSA, FIGS. 8A-8B): decreased
Compound: CCCCCCCCCCCCCCCC(=O)NCCOCCOCCOCCOCCOCCOCCOCCOCCC(=O)N[C@@H](CCCCN)C(=O)NCC(=O)NCC(=O)N[C@H](Cc1ccc(O)cc1)C(=O)N[C@@H](Cc1ccccc1)C(=O)N[C@@H](CC(C)C)C(=O)N1CCC[C@H]1C(=O)N[C@H](CO)C(=O)N[C@@H](CCC(N)=O)C(=O)N[C@@H](Cc1ccccc1)C(=O)N[C@H](C)C(=O)N1Cc2ccccc2C[C@H]1C(=O)N[C@@H](CO)C(=O)O [C16] (HELM PEPTIDE1{[CCCCCCCCCCCCCCCC(=O)[*:2]].[O=C(CCOCCOCCOCCOCCOCCOCCOCCOCCN[*:1])[*:2]].K.G.G.[dY].F.L.P.[dS].Q.F.[dA].[Tic].S}$$$$V2.0; N-terminus and C-terminus assumed)
effect on neuropathic pain ([2]; listed as C16-stable Chem9): abrogate neuropathic pain
effect on neuropathic pain ([2]; listed as palm sC9): alleviated neuropathic pain
time after compound administration over which mechanical hypersensitivity is blocked / efficacy kept [2]: more than 24 hours

EC50 (CMKLR1 [1]): 31.9 nM
Emax (CMKLR1 [1]): 100%
EC50 (CMKLR1 [4]; no BSA, read-out: EC50 (no wash0)): 35.2 nM
EC50 (CMKLR1 [4]; with BSA, read-out: EC50 (BSA) (no wash)): 5.1 nM
Compound: CC(C)C[C@H](NC(=O)[C@H](Cc1ccccc1)NC(=O)[C@H](N)Cc1ccc(O)cc1)C(=O)N1CCC[C@H]1C(=O)N[C@H](CO)C(=O)N[C@@H](CCC(N)=O)C(=O)N[C@@H](Cc1ccccc1)C(=O)N[C@H](C)C(=O)N1Cc2ccccc2C[C@H]1C(=O)N[C@@H](CO)C(=O)O [none, reference compound] (HELM PEPTIDE1{[dY].F.L.P.[dS].Q.F.[dA].[Tic].S}$$$$V2.0)

Emax (CMKLR1 [1]): 110%
activity after washing in the presence of BSA (CMKLR1 [4]; with BSA, FIGS. 8C-8D): further reduced
Compound: CC/C=C\C/C=C\C/C=C\CCCCCCCC(=O)NCCOCCOCCOCCOCCOCCOCCOCCOCCC(=O)N[C@@H](CCCCN)C(=O)NCC(=O)NCC(=O)N[C@H](Cc1ccc(O)cc1)C(=O)N[C@@H](Cc1ccccc1)C(=O)N[C@@H](CC(C)C)C(=O)N1CCC[C@H]1C(=O)N[C@H](CO)C(=O)N[C@@H](CCC(N)=O)C(=O)N[C@@H](Cc1ccccc1)C(=O)N[C@H](C)C(=O)N1Cc2ccccc2C[C@H]1C(=O)N[C@@H](CO)C(=O)O [C18:3] (HELM PEPTIDE1{[CC/C=C\C/C=C\C/C=C\CCCCCCCC(=O)[*:2]].[O=C(CCOCCOCCOCCOCCOCCOCCOCCOCCN[*:1])[*:2]].K.G.G.[dY].F.L.P.[dS].Q.F.[dA].[Tic].S}$$$$V2.0; N-terminus and C-terminus assumed)
